Source: US10174013B2, “Benzimidazole derivatives as kinase inhibitors” (SELVITA S.A., priority 2012, dated 2019)
Counter-ions that a name gives are not always drawn.

Experiments:
[1] = molecular target: FLT3wt (Homo sapiens (Human), UniProt P36888); assay: Binding to FLT3 wildtype (DiscoveRx)
[2] = tested on: U-937; assay: Combination study with anti-cancer agents, cell viability, U-937; details: for Effect of combination: 72 hours
Description: (§1) After this incubation, a cell viability assay was carried out according to the Manufacturer's instructions (CellTiter 96®AQueous Non-Radioactive Cell Proliferation Assay, Promega). The results were expressed as percentage of viable cells upon treatment with the individual drugs or the combination compared to the vehicle (DMSO) treated cells.

[3] = molecular target: FLT3(D835Y) (Homo sapiens (Human), UniProt P36888, D835Y); assay: Binding to FLT3(D835Y) mutant (DiscoveRx)
Description: Selected compounds were also tested for their binding properties against FLT3 kinase mutants using suitable in vitro assays (performed according to standard assays at DiscoveRx Corporation). The compounds show strong binding to the main oncogenic mutants of the FLT3 kinase, see Table 1B.

[4] = tested on: HEL-92; assay: Combination study with anti-cancer agents, cell viability, HEL-92; details: for Effect of combination: 72 hours
Description: as §1

[5] = tested on: PC3; assay: Combination study with anti-cancer agents, cell viability, PC3; details: for Effect of combination: 72 hours
Description: as §1

[6] = tested on: Pim kinase biomarkers in MOLM16 cells; assay: Pim-kinase biomarkers in MOLM16 cells; assay type: cell-based, Human; details: 0.1-2.5 μM, 4 and 24 h
Description: The efficacy of compound 1BI on Pim kinase-inhibition was also tested in MOLM16 cells (an acute myeloid leukemia cell line). The cells were treated with compound 1BI at concentrations of 0.1, 0.25, 0.5, 1 and 2.5 μM for 4 and 24 h. The positive controls Ref. A (SGI-1776, see above) and Ref. B (Sunitinib, see above) were used at 5 μM concentration. DMSO (Dimethyl sulfoxide) was used as a negative control. The levels of the following classical Pim-1 kinase biomarkers were assessed: c-myc, phospho-4EBP1 (Scr65, Thr37&46) and phosphorylated S6 (Scr235/236). […] The levels of a pro-apoptotic biomarker were assessed; induction of apoptosis, presented as an appearance and increased expression of cleaved form of PARP protein, was observed. Levels of tubulin were assessed as a reference loading control.

[7] = tested on: MOLM16 xenograft; assay: MOLM16 xenograft in immunocompromised mice; assay type: in vivo; details: 100 mg/Kg QD
Excerpt: Several compounds of the present invention have been studied in a xenograft in mice, an in vivo tumor transplantation model used to investigate the factors involved in malignant transformation, invasion and metastasis, as well as to examine response to therapy. For the purpose of acceptance of donor leukemic cells (MV4-11 or MOLM16 cells), immunocompromised mice were used, namely particularly severely compromised immunodeficient mice (NOD/scid, SCID/beige). When tumors developed size of approx. 50-200 mm^3, the compounds as indicated below in Tables 3 and 3a were administered orally every day for 2-3 weeks, in once a day (QD) or twice a day (BID) schedule. During the course of the experiment, the mice were monitored and the following two parameters were measured: the tumor growth inhibition (TGI) factor as a measure of therapeutic efficacy and the body weight change (ΔBW) factor as a measure of possible compound toxicity. The results are depicted in Tables 3 and 3a.
Additionally, compound 2A, together with other examples was tested in MOLM16 cells xenografted into immunocompromised mice.

[8] = tested on: MOLM-16; assay: Combination study with anti-cancer agents, cell viability, MOLM-16; details: for Effect of combination: MOLM-16 (Acute myeloid leukemia), 72 hours
Description: as §1

[9] = single agent, used as fixed concentration in combination study

## CCn1c(N2CCNCC2)nc2c([N+](=O)[O-])c(Br)c(Br)cc21 [Example 1A, 5,6-dibromo-1-ethyl-4-nitro-2-(piperazin-1-yl)-1H-1,3-benzodiazole hydrochloride]
[1]
  Kd: 400 nM
[2]; [9]
  ED50 value in U-937: 6.64 µM
[2]; with ABT737, U937 (Histiocytic lymphoma)
  Effect of combination: Synergistic
[2]; with Obatoclax, U937 (Histiocytic lymphoma)
  Effect of combination: Synergistic
[3]
  Kd: 46 nM
[4]; [9]
  ED50 value in HEL-92: 5.46 µM
[4]; with CP690550, HEL92 (Erythroleukemia)
  Effect of combination: Synergistic
[4]; with Cyt387, HEL92 (Erythroleukemia)
  Effect of combination: Synergistic
[4]; with Ruxolitinib, HEL92 (Erythroleukemia)
  Effect of combination: Synergistic/
[5]; [9]
  ED50 value in PC3: 2.91 µM
[5]; with CAL-101, PC3 (Prostate cancer)
  Effect of combination: Synergistic
[5]; with GDC-0941, PC3 (Prostate cancer)
  Effect of combination: Synergistic/
[5]; with Rapamycin, PC3 (Prostate cancer)
  Effect of combination: Synergistic
[5]; with Wortmannin, PC3 (Prostate cancer)
  Effect of combination: Synergistic

## CC(C)n1c(N2CC[C@@H](N)C2)nc2c(C#N)c(Br)c(Br)cc21 [Example 1BI]
[6]
  induction of apoptosis (cleaved form of PARP protein): observed
  levels of c-myc protein: downregulated
  levels of phosphorylated 4EBP1 (Ser65 and Thr37/46): downregulated
  levels of phosphorylated S6: diminished completely

## CC(C)n1c(N2CCNCC2)nc2c([N+](=O)[O-])c(Br)c(Br)cc21 [Example 2A, 5,6-dibromo-4-nitro-2-(piperazin-1-yl)-1-(propan-2-yl)-1H-1,3-benzodiazole hydrochloride]
[7]
  ΔBW (body weight change): −8.6%
[7]; hydrochloride
  TGI (tumor growth inhibition): >99%

## CC(C)n1c(C2CCNCC2)nc2c([N+](=O)[O-])c(Br)c(Br)cc21 [Example 26A, 5,6-dibromo-4-nitro-2-(piperidin-4-yl)-1-(propan-2-yl)-1H-1,3-benzodiazole]
[8]; [9]
  ED50 value in MOLM-16: 0.4 µM
[8]; with C (Cytarabine)
  Effect of combination: Synergistic
[8]; with V (Vosaroxin)
  Effect of combination: Synergistic
